# Assay results taken from patent publication US20190175577A1, “METHOD FOR TREATING AMYOTROPHIC LATERAL SCLEROSIS” (UNIVERSITY OF MIAMI, priority 2017, published 2019).
# Key:
# [1] = test system: ALS caused by SOD1 mutations; set-up: species or system human; conditions: in vivo
# Method: (§1) Provided herein are the details of a completed, randomized, double-blind placebo controlled phase II trial. The trial was conducted at two sites and three academic medical centers in the United States. An independent medical monitor completed regular review of laboratory reports and adverse events (AEs), as well as real-time review of serious adverse events (SAEs). Eligibility criteria (FIG. 1) aimed to enroll, from across the U.S. and Canada, a population relatively early in the course of ALS caused by SOD1 mutations associated with rapidly progressive disease.
# Randomization (1:1 to Arimoclomol or matching placebo) was stratified by Riluzole use and in block size of two within each stratum, and implemented using a central web-based electronic data capture (EDC) system managed by the Neurological Clinical Research Institute Data Management Center at MGH. The randomization schedule, generated by a study statistician, was provided to each research pharmacy. At randomization, the EDC assigned a subject identification number, which the site-coordinator submitted to the research pharmacy for drug dispensing. […]
# The first participants were randomized and administered 100 mg of Arimoclomol three times daily. […] All data were analyzed following the intent-to-treat principle.
# Assessments were performed in person only at Baseline and Month-2, with remote assessments planned for all other visits. […] In addition, AEs, concomitant medications, study drug dose management, use of ventilatory support, and key study events were recorded at all visits.
# The primary endpoint of safety and tolerability was based on the frequency of AEs, abnormal vital signs, and abnormal laboratory studies above or below pre-defined alert levels. […] In summarizing AEs: (a) if a participant experienced multiple occurrences of the same event, only the occurrence with the worst severity (or highest degree of relatedness to study drug) was counted; and (b) CTCAE events were further classified into subgroups (“AE type”), e.g., pneumonia and bronchitis were both classified as upper/lower respiratory infection.
# [2] = test system: ALS caused by SOD1 mutations; assay: randomized, double-blind placebo controlled phase II trial: efficacy (survival, ALSFRS-R, CAFS); type: in vivo, human; conditions: for participants alive (and without PAV or tracheostomy): at 12 months
# Method: as §1
# Randomization (1:1 to Arimoclomol or matching placebo) was stratified by Riluzole use and in block size of two within each stratum, and implemented using a central web-based electronic data capture (EDC) system managed by the Neurological Clinical Research Institute Data Management Center at MGH. The randomization schedule, generated by a study statistician, was provided to each research pharmacy. At randomization, the EDC assigned a subject identification number, which the site-coordinator submitted to the research pharmacy for drug dispensing. Encapsulated placebo was matched in color and appearance to active drug. Except for the research pharmacists, pharmacy monitors, and study statisticians, all other personnel and study participants were blinded to treatment assignments.
# The first participants were randomized and administered 100 mg of Arimoclomol three times daily. After enrollment of the first 16 participants (of whom 8 were on Arimoclomol, including 1 subject subsequently excluded per protocol), the dosage was increased to 200 mg administered three times daily for all active participants (which for the Arimoclomol group included three subjects initially started at 100 mg administered three times daily), and all newly enrolled participants received 200 mg three times a day. All data were analyzed following the intent-to-treat principle.
# Assessments were performed in person only at Baseline and Month-2, with remote assessments planned for all other visits. Neurological examination, motor unit number estimation (MUNE), and slow vital capacity (SVC) could only be performed in person. Other assessments, conducted at all visits (in person and remotely), included: vital signs; blood and urine for safety labs; ALSFRS-R (revised ALS Functional Rating Scale), which has been validated for telephone administration; and the forced expiratory volume in 6-seconds (FEV6). Miano et al., Amyotrophic Lateral Sclerosis And Other Motor Neuron Disorders: Official Publication Of The World Federation Of Neurology, Research Group On Motor Neuron Diseases 2004; 5:235-239; Vandevoorde et al., Chest 2005; 127:1560-1564. In addition, AEs, concomitant medications, study drug dose management, use of ventilatory support, and key study events were recorded at all visits.
# Operationalization of remote assessments posed logistical challenges that required the introduction of two innovative features: (1) the collection of vital signs and blood/urine for safety labs in participants' homes, this was accomplished using the services of a mobile medical provider; and (2) the use of FEV6 as the principal measure of respiratory function. The key advantage of FEV6 over SVC is that FEV6 may be self-administered by the participant using a low-cost portable device (e.g., Piko-6, nSpireHealth, Inc.). […] Use of the FEV6 allowed for remote assessment of respiratory function, which otherwise would not have been available for collection in this trial. Reproducibility and normative data for FEV6 are established. Hankinson et al., Chest 2003; 124:1805-1811.
# For efficacy, the principal outcome measure was PAV- and tracheostomy-free survival time, calculated from baseline to PAV (defined as first of seven consecutive days when PAV was used >22 hours/day) or tracheostomy, date of death (if no PAV or tracheostomy), or date of last available follow-up/study contact (if still PAV- and tracheostomy-free by then). […]
smiles,measurement,setting,value
[O-][n+]1cccc(/C(Cl)=N/OC[C@H](O)CN2CCCCC2)c1 [Arimoclomol],discontinuation because of adverse event,[1],A single participant stopped Arimoclomol because of a skin rash
same,relatedness of SAEs to study drug,[1],none of which were considered related to study drug
same,serious adverse events (SAEs) reported,[1],7
same,CAFS potential treatment benefit vs placebo,[2]; 95% CI: −2.50 to 11.64,4.57 points
same,"ALSFRS-R rate of decline, average (±SE)",[2]; A4V subgroup,2.6±0.5 points/month
same,treatment difference in ALSFRS-R rate of decline vs placebo,"[2]; A4V subgroup, 95% CI: −0.28 to 2.24, p=0.12",0.98 points/month
same,"win ratio, participant-to-participant comparison between the two groups",[2]; CAFS,1.6924
same,"unadjusted hazard ratio (HR), PAV- and tracheostomy-free survival","[2]; Cox proportional hazards model, Arimoclomol compared to control, 95% CI: 0.29-1.48, p=0.33",0.67
same,hazard ratio (HR) adjusted for baseline ALSFRS-R and Riluzole,"[2]; Cox proportional hazards model, 95% CI: 0.32-1.80, p=0.55",0.77
same,"treatment difference in ALSFRS-R rate of decline, Vonesh model","[2]; Vonesh shared parameter model, 95% CI: −0.33 to 1.86, p=0.16",0.77±0.54 points/month
same,treatment difference in ALSFRS-R rate of decline vs placebo,"[2]; all participants, 95% CI: −0.63 to 1.63, p=0.37",0.5 points/month
same,"ALSFRS-R rate of decline, average (±SE)","[2]; all participants, mixed model",2.5±0.4 points/month
same,participants alive (and without PAV or tracheostomy),"[2]; all participants, Kaplan-Meier",34%
same,participants alive (and without PAV or tracheostomy),[2]; subgroup of A4V participants,29%
same,"direct effect of treatment on survival, Vonesh model",[2]; p=0.62,not significant
same,"CAFS rank score, average (±SE)",[2]; rank scores range from 1 (worst) to 36 (best),20.9±2.5
same,ALSFRS-R difference over a one-year period,"[2]; translated from treatment difference of 0.5-1.0 points/month, not statistically significant",6-12 points
